Measured values published in patent US10357481B2 (MERCK SHARP & DOHME CORP., priority 2015, dated 2019).

The compounds below were run against T1, human PDE2A1 (Homo sapiens, UniProt O00408) (assay: IMAP FP PDE selectivity panel, human PDE2A1). Settings: Lab B; read-out: Human PDE2 Ki (nM) Lab B.
T1 construct: GST; purchased BPS Bioscience (San Diego, Calif.) 60020; host or cells: insect cells
Format: biochemical
How it was run: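 Human PDE2A1 tested alongside PDE1–11 by IMAP fluorescence polarization at room temperature. Substrate was 50 nM FAM-cAMP plus 1000 nM cGMP, buffer pH 7.2 with MgCl2 and DTT, enzyme set for 20% conversion. Ten 3-fold compound dilutions; 60 min reaction, then IMAP binding solution, 1 h, parallel/perpendicular fluorescence read.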

T1 sequence (O00408 1-920 isoform O00408-2): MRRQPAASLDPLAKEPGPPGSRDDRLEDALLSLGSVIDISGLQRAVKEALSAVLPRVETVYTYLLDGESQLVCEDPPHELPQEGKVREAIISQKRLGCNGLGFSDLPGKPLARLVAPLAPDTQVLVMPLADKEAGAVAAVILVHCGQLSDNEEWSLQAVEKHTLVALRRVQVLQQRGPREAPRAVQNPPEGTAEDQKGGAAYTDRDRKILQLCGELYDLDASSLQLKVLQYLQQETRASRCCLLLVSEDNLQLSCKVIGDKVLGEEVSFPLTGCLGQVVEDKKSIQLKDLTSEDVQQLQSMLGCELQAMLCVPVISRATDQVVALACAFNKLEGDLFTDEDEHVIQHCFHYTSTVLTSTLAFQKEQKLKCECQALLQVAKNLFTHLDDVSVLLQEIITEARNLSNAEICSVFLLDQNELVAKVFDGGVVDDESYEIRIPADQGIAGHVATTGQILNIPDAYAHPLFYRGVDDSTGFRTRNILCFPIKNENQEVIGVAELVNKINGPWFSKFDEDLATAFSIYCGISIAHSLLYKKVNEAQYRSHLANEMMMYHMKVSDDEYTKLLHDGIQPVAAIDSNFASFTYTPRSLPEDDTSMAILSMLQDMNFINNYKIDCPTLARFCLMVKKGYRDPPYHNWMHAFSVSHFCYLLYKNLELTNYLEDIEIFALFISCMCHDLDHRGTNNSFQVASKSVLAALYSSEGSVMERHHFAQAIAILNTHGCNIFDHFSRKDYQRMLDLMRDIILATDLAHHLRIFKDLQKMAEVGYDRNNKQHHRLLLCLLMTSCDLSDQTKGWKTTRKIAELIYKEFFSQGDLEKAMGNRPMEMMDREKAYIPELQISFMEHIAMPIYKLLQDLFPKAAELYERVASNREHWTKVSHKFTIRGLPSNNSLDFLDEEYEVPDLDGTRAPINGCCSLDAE

Compound | Ki [nM]
OCc1cc(NC2(c3ccc(C(F)(F)F)cc3F)CC2)n2ncnc2c1 [Example 270, [5-({1-[2-Fluoro-4-(trifluoromethyl)phenyl]cyclopropyl}amino)[1,2,4]triazolo[1,5-a]pyridin-7-yl] methanol] | 101
C[C@@H](Nc1cc(CO)cc2ncnn12)c1ccc(OC(F)(F)F)cc1 [Example 271, [5-({(1R)-1-[4-(Trifluoromethoxy)phenyl]ethyl}amino)[1,2,4]triazolo[1,5-a]pyridin-7-yl] methanol] | 530
C[C@@H](Nc1cc(CO)cc2ncnn12)c1ccc(C(F)(F)F)c(F)c1 [Example 272, [5-({(1R)-1-[3-Fluoro4-(trifluoromethyl)phenyl]ethyl}amino)[1,2,4]triazolo[1,5-a]pyridin-7-yl]methanol] | 121
CC(C)(O)[C@@H](Nc1cc(CO)cc2ncnn12)c1ccc(OC(F)(F)F)cc1F [Example 273, (1S)-1-[2-Fluoro-4-(trifluoromethoxy)phenyl]-1-{[7-(hydroxymethyl)[1,2,4]triazolo [1,5-a]pyridin-5-yl]amino}-2-methylpropan-2-ol] | 102
Fc1cc(C2(Nc3cc(C(F)F)cc4ncnn34)CC2)ccc1C(F)(F)F [Example 274, 7-(Difluoromethyl)-N-(1-(3-fluoro-4-(trifluoromethy)phenyl)cyclopropyl)-[1,2,4]triazol-[1,5-a]pyridin-5-amine] | 11
CC(O)c1cc(NC2(c3ccc(C(F)(F)F)c(F)c3)CC2)n2ncnc2c1 (centres unmarked) [Example 275, 1-(5-((1-(3-Fluoro-4-(trifluoromethyl)phenyl)cyclopropyl)amino)-[1,2,4]triazolo[1,5-a]pyridin-7-yl)ethanol] | 111
Fc1cc(C2(Nc3cc(C(F)(F)F)cc4ncnn34)CC2)ccc1C(F)(F)F [Example 276, N-(1-(3-fluoro-4-(trifluoromethyl)phenyl)cyclopropyl)-7-(trifluoromethyl)-[1,2,4]triazolo[1,5-a]pyridin-5-amine] | 68
CC(C)(O)[C@@H](Nc1cc(C(F)(F)F)cc2ncnn12)c1ccc(C(F)(F)F)cc1 [Example 277, (1S)-2-Methyl-1-[4-(trifluoromethyl)phenyl]-1-{[7-(trifluoromethyl)[1,2,4]triazolo [1,5-a]pyridin-5-yl]amino} propan-2-ol] | 87
CC(C)(O)[C@@H](Nc1cc(C(F)(F)F)cc2ncnn12)c1ccc(OC(F)(F)F)cc1F [Example 278, (1S)-1-[2-Fluoro-4-(trifluoromethoxy)phenyl]-2-methyl-1-{[7-(trifluoromethyl) [1,2,4]triazolo[1,5α]pyridin-5-yl]amino}propan-2-ol] | 92
CC(C)(O)[C@@H](Nc1cc(C(F)F)cc2ncnn12)c1ccc(OC(F)(F)F)c(F)c1 [Example 279, (S)-1-((7-(Difluoromethyl)-[1,2,4]triazolo[1,5-a]pyridin-5-yl)amino)-1-(3-fluoro-4-(trifluoromethoxy)phenyl)-2-methylpropan-2-ol] | 41
CC(C)(O)[C@@H](Nc1cc(C(F)F)cc2ncnn12)c1ccc(C(F)(F)F)cc1 [Example 280, (1S)-1-{[7-(Difluoromethyl) [1,2,4]triazolo[1,5-a]pyridin-5-yl]amino}-1-[4-(trifluoromethyl)phenyl]-2-methylpropan-2-ol] | 20
CC(C)(O)[C@@H](Nc1cc(C(F)F)cc2ncnn12)c1ccc(OC(F)(F)F)cc1F [Example 281, (1S)-1-{[7-(Difluoromethyl) [1,2,4]triazolo[1,5-a]pyridin-5-yl]amino}-1-[2-fluoro-4-(trifluoromethoxy)phenyl]-2-methylpropan-2-ol] | 40
CC(C)(O)[C@@H](Nc1cc(C(F)F)cc2ncnn12)c1ccc(S(F)(F)(F)(F)F)cc1 [Example 282, (1S)-1-{[7-(Difluoromethyl) [1,2,4]triazolo[1,5-a]pyridin-5-yl]amino}-2-methyl-1-[4-(pentafluoro-λ^6-sulfanyl)phenyl]propan-2-ol] | 7.8
CC(C)(O)[C@H](Nc1cc(C(F)F)cc2ncnn12)c1ccc(S(F)(F)(F)(F)F)cc1 [Example 283, (1R)-1-{[7-(Difluoromethyl) [1,2,4]triazolo[1,5-a]pyridin-5-yl]amino}-2-methyl-1-[4-(pentafluoro-λ^6-sulfanyl)phenyl]propan-2-ol] | 498
CC(C)(C)[C@@H](Nc1cncc2ncnn12)c1ccc(C(F)(F)F)c(F)c1 [Example 284] | 156
Fc1cc(C2(Nc3cncc4ncnn34)CC2)ccc1C(F)(F)F [Example 285, N-{1-[3-Fluoro-4-(trifluoromethyl)phenyl]cyclopropyl}[1,2,4]triazolo [1,5-a]pyrazin-5-amine] | 22
CC(C)(O)[C@@H](Nc1cncc2ncnn12)c1ccc(OC(F)(F)F)c(F)c1 [Example 286, (1S)-1-[3-Fluoro-4-(trifluoromethoxy)phenyl]-2-methyl-1-([1,2,4]triazolo[1,5-a]pyrazin-5-ylamino)propan-2-ol] | 209
CC(C)(O)[C@@H](Nc1cncc2ncnn12)c1ccc(C(F)(F)F)cc1 [Example 287, (1S)-2-Methyl-1-([1,2,4]triazolo[1,5-a]pyrazin-5-ylamino)-1-[4-(trifluoromethyl)phenyl]propan-2-ol] | 150
C[C@@H](Nc1cncc2ncnn12)c1ccc(C(F)(F)F)cc1 [Example 288] | 221
C[C@H](Nc1cncc2ncnn12)c1ccc(C(F)(F)F)cc1 [Example 289] | > 2960
FS(F)(F)(F)(F)c1ccc(C2(Nc3cncc4ncnn34)CC2)cc1 [Example 290, N-{1-[4-(Pentafluoro-λ^6-sulfanyl)phenyl]cyclopropyl} [1,2,4]triazolo[1,5-a]pyrazin-5-amine] | 90
CC(C)(O)[C@@H](Nc1cc(C(F)(F)F)cc2nc(N)nn12)c1ccc(C(F)(F)F)cc1 [Example 294, (S)-1-((2-Amino-7-(trifluoromethyl)-[1,2,4]triazolo[1,5-a]pyridin-5-yl)amino)-2-methyl-1-(4-(trifluoromethyl)phenyl)propan-2-ol] | 678
(R or S)-2,2-Dimethyl-3-(3-methyl-4-(trifluoromethoxy)phenyl)-3-(5-methyl-[1,2,4]triazolo[1,5-a]pyrimidin-7-ylamino)propan-1-ol [Example 231] | 7.3
